What was measured:
human NAAA = target: T1, human NAAA (Homo sapiens, UniProt Q02083); experiment: Fluorogenic h-NAAA assay; assay type: biochemical; conditions: recombinant HEK-hNAAA preparation
T1 construct: made in house; host or cells: HEK293 cells, stably transfected; soluble fraction after freeze/thaw
T1 sequence (Q02083 29-359): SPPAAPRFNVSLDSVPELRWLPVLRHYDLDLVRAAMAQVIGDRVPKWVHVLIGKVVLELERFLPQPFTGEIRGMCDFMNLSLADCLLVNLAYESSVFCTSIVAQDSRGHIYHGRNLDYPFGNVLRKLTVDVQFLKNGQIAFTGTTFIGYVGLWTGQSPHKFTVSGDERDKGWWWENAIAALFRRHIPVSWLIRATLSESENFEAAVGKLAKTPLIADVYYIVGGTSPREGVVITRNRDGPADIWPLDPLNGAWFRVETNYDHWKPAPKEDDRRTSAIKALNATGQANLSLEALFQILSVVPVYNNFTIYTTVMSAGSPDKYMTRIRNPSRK
Description: Hek293 cells stably transfected with the human NAAA coding sequence cloned from a human spleen cDNA library were used as enzyme source. Recombinant HEK-hNAAA pellets were resuspended in homogenizing buffer, and sonicated. Samples were centrifuged at 800×g for 15 min at 4° C. and the supernatants were ultracentrifuged at 12,000×g for 30 min at 4° C. The pellets were resuspended in PBS pH 7.4 on ice and subjected to a freeze/thaw cycle at −80° C. (two freeze/thaw cycles at −80° C. for Examples 34-37). The suspension was finally centrifuged at 105,000×g for 1 h at 4° C. Protein concentration was measured and samples stored at −80° C. until use.
The assay was run in Optiplate 96-wells black plates, in a total reaction volume of 200 μL. NAAA protein preparation (4.0 μg for Examples except 34-37, which were 20.0 μg) was pre-incubated for 10 min with various concentrations of test compounds or vehicle control (5% DMSO) in 100 mM citrate/phosphate buffer (pH 4.5) containing 3.0 mM DTT, 0.1% Triton X-100, 0.05% BSA, 150 mM NaCl. N-(4-methyl-2-oxo-chromen-7-yl)-hexadecanamide was used as a substrate (5.0 μM) and the reaction carried over for 30 min at 37° C. The samples were then read in a Perkin Elmer Envision plate reader using an excitation wavelength of 360 nm and emission 460 nm. IC50 values were calculated by non-linear regression analysis of log [concentration]/inhibition curves using GraphPad Prism 5 (GraphPad Software Inc., CA—USA) applying a standard slope curve fitting.

[1] = target: T2, Rat AC (r-AC), Acid Ceramidase (Rattus norvegicus, UniProt Q6P7S1); experiment: Rat AC (r-AC) assay, UPLC/MS; assay type: biochemical; conditions: read-out: r-AC UPLC/MS assay % inhib.
T2 construct: V5 (C); His (C); made in house; host or cells: HEK293 cells transfected with pEF6-rAC-V5/His, selected with G418; soluble fraction after freeze/thaw
T2 sequence (Q6P7S1 21-394): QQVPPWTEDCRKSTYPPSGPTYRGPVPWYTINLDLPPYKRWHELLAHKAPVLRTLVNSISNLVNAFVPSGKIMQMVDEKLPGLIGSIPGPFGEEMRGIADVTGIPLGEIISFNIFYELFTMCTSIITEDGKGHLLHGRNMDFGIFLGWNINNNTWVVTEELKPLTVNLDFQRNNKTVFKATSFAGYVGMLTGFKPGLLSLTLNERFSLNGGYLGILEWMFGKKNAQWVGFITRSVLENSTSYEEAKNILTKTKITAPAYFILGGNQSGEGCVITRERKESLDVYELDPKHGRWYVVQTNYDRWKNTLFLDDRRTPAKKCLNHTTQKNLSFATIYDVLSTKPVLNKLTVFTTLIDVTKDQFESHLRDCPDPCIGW
Description: The selectivity of selected compounds versus Acid Ceramidase (AC) was determined.
Rat AC (r-AC) was cloned from a brain cDNA library using primers based on the sequence obtained from the National Center for Biotechnology Information (NCBI) database: 5′rAC (5′-GACCATGCTGGGCCGTAGT-3′) (SEQ ID NO:1) and 3′rAC (5′-CCAGCCTATACAAGGGTCT-3′) (SEQ ID NO:2). The PCR (High Fidelity PCR Master, Roche) product was subcloned into a pEF6-V5/His vector (Invitrogen) to construct a mammalian expression vector encoding V5/His-tagged rat AC. HEK293 cells were transfected with pEF6-rAC-V5/His using Super-Fect reagent (Qiagen) and screened with G418 (0.3 mg/mL). Cells were suspended in 20 mM Tris HCl (pH 7.5) containing 0.32M sucrose, sonicated and centrifuged at 800×g for 15 min at 4° C. The supernatants were centrifuged again at 12,000×g for 30 min at 4° C. The pellets were suspended in phosphate-buffered saline (PBS) and subjected to 2 freeze-thaw cycles at −80° C. The suspensions were centrifuged at 105,000×g for 1 hour at 4° C. The supernatants containing recombinant AC were kept at −80° C. until use. Protein concentration was measured using the bicinchoninic acid (BCA) assay (Pierce). Recombinant rat AC (50 μg) was preincubated with inhibitors (final DMSO concentration 1%) in assay buffer (100 mM sodium phosphate, 0.1% Nonidet P-40, 150 mM NaCl, 3 mM DTT, 100 mM sodium citrate, pH 4.5) for 30 min at 37° C. Reactions were started by the addition of 100 μM N-lauroyl ceramide (Nu-Chek Prep, Elysian, Minn.) and carried on for 30 min at 37° C. Reactions were stopped by addition of a mixture of chloroform/methanol (2:1, vol/vol) containing 1 nmol of heptadecanoic acid (HDA; NuChek Prep). The organic phases were collected, dried under N2, and analyzed by LC-MS in the negative-ion mode using […] (HDA) as internal standard (m/z=199 for lauric acid, m/z=269 for HDA). HDA was eluted on an XDB Eclipse C18 column isocratically at 2.2 mL/min for 1 min with a solvent mixture of 95% methanol and 5% water, both containing 0.25% acetic acid and 5 mM ammonium acetate. The column temperature was 50° C. Electrospray ionization (ESI) was in the negative mode, capillary voltage as 4 kV, and fragmentor voltage was 100 V. N2 was used as drying gas at a flow rate of 13 L/min and a temperature of 350° C. Nebulizer pressure was set at 60 psi. We monitored […] in the selected-ion monitoring (SIM) mode using HDA as internal standard. Calibration curves were generated using commercial lauric acid (Nu-Chek Prep; m/z=199).

SMILES	IC50 (human NAAA)	inhibition at 1 µM [1]
CCCCCCCCC(=O)N[C@H]1CNC1=O [Example 3, N-[(3S)-2-Oxoazetidin-3-yl]-nonanamide]	108 nM	25%
O=C(CCCCCCc1ccccc1)N[C@H]1CNC1=O [Example 7, 7-Phenyl-N-[(3S)-2-Oxoazetidin-3-yl]-heptanamide]	334 nM	25%
